Laboratory results reported in patent US6818644B1, “Substituted piperazine derivatives, the preparation thereof and their use as medicaments” (Boehringer Ingelheim Pharm GmbH & Co, KG, priority 1999, dated 2004).

Structure (SMILES)	melting point [°C]
O=C(NCC(F)(F)F)C1(CCCCN2CCN(c3cccc(Cl)c3)CC2)c2ccccc2-c2ccccc21 [Example 5, 9-{4-[4-(3-Chloro-phenyl)-piperazin-1-yl]-butyl}-9H-fluorene-9-carboxylic acid-(2,2,2-trifluoroethyl)-amide]	122
O=C(NCC(F)(F)F)C1(CCCCN2CCN(c3ccc(C(F)(F)F)cc3)CC2)c2ccccc2-c2ccccc21 [Example 7, 9-{4-[4-(4-Trifluoromethyl-phenyl)-piperazin-1-yl]-butyl}-9H-fluorene-9-carboxylic acid-(2,2,2-trifluoroethyl)-amide]	176
O=C(NCC(F)(F)F)C1(CCCCN2CCN(c3ccc(Cl)c(C(F)(F)F)c3)CC2)c2ccccc2-c2ccccc21 [Example 10, 9-{4-[4-(4-Chloro-3-trifluoromethyl-phenyl)-piperazin-1-yl]-butyl}-9H-fluorene-9-carboxylic acid-(2,2,2-trifluoroethyl)-amide]	96
O=C(NCC(F)(F)F)C1(CCCCN2CCN(c3ccc(Cl)c(Cl)c3)CC2)c2ccccc2-c2ccccc21 [Example 12, 9-{4-[4-(3,4-dichlorophenyl)-piperazin-1-yl]-butyl}-9H-fluorene-9-carboxylic acid-(2,2,2-trifluoroethyl)-amide]	122
COc1ccc(N2CCN(CCCCC3(C(=O)NCC(F)(F)F)c4ccccc4-c4ccccc43)CC2)cc1 [Example 13, 9-{4-[4-(4-methoxy-phenyl)-piperazin-1-yl]-butyl}-9H-fluorene-9-carboxylic acid-(2,2,2-trifluoroethyl)-amide]	120
O=C(NCC(F)(F)F)C1(CCCCN2CCN(c3ccc([N+](=O)[O-])cc3)CC2)c2ccccc2-c2ccccc21 [Example 17, 9-{4-[4-(4-nitro-phenyl)-piperazin-1-yl]-butyl}-9H-fluorene-9-carboxylic acid-(2,2,2-trifluoroethyl)-amide]	146
O=C(NCC(F)(F)F)C1(CCCCN2CCN(c3ccccn3)CC2)c2ccccc2-c2ccccc21 [Example 20, 9-{4-[4-Pyridin-2-yl-piperazin-1-yl]-butyl}-9H-fluorene-9-carboxylic acid-(2,2,2-trifluoroethyl)-amide]	123
Cc1cccc(N2CCN(CCCCC3(C(=O)NCC(F)(F)F)c4ccccc4-c4ccccc43)CC2)n1 [Example 25, 9-{4-[4-(6-methyl-pyridin-2-yl)-piperazin-1-yl]-butyl}-9H-fluorene-9-carboxylic acid-(2,2,2-trifluoroethyl)-amide]	85 to 87
Cc1cccc(N2CCN(CCCCC3(C(=O)NCc4ccc(F)cc4)c4ccccc4-c4ccccc43)CC2)n1 [Example 26, 9-{4-[4-(6-methyl-pyridin-2-yl)-piperazin-1-yl]-butyl}-9H-fluorene-9-carboxylic acid-4-fluorobenzyl-amide]	96 to 97
O=C(NCC(F)(F)F)C1(CCCCN2CCN(c3ccc(C(F)(F)F)cn3)CC2)c2ccccc2-c2ccccc21 [Example 27, 9-{4-[4-(5-trifluoromethyl-pyridin-2-yl)-piperazin-1-yl]-butyl}-9H-fluorene-9-carboxylic acid-(2,2,2-trifluoroethyl)-amide]	147 to 149
COc1cccc(N2CCN(CCCCC3(C(=O)NCC(F)(F)F)c4ccccc4Oc4ccccc43)CC2)n1 [Example 35, 9-{4-[4-(6-methoxy-pyridin-2-yl)-piperazin-1-yl]-butyl}-9H-xanthene-9-carboxylic acid-(2,2,2-trifluoroethyl)-amide]	122
COc1cccc(N2CC(C)N(CCCCC3(C(=O)NCC(F)(F)F)c4ccccc4-c4ccccc43)C(C)C2)n1 (centres unmarked) [Example 36, 9-{4-[4-(6-methoxy-pyridin-2-yl)-2,6-dimethyl-piperazin-1-yl]-butyl}-9H-fluorene-9-carboxylic acid-(2,2,2-trifluoroethyl)-amide]	122
COc1cccc(N2CC(C)N(CCCCC3(C(=O)NCc4ccc(F)cc4)c4ccccc4-c4ccccc43)C(C)C2)n1 (centres unmarked) [Example 37, 9-{4-[4-(6-methoxy-pyridin-2-yl)-2,6-dimethyl-piperazin-1-yl]-butyl}-9H-fluorene-9-carboxylic acid-4-fluorobenzyl-amide]	78 to 79

Further lines, results first:

melting point [°C]	Structure (SMILES)
> 270	Cl.Nc1ccc(N2CCN(CCCCC3(C(=O)NCC(F)(F)F)c4ccccc4-c4ccccc43)CC2)cc1
209 to 211	O=C(NCC(F)(F)F)C1(CCCCN2CCN(c3ccc(-c4ccccc4)cc3)CC2)c2ccccc2-c2ccccc21 [Example 3, 9-[4-(4-biphenyl-4-yl-piperazin-1-yl)-butyl]-9H-fluorene-9-carboxylic acid-(2,2,2-trifluoroethyl)-amide]
166	O=C(NCC(F)(F)F)C1(CCCCN2CCN(c3ccc(Cl)cc3)CC2)c2ccccc2-c2ccccc21 [Example 4, 9-{4-[4-(4-Chloro-phenyl)-piperazin-1-yl]-butyl}-9H-fluorene-9-carboxylic acid-(2,2,2-trifluoroethyl)-amide]
180	O=C(NCC(F)(F)F)C1(CCCCN2CCN(c3ccc(OCc4ccccc4)cc3)CC2)c2ccccc2-c2ccccc21 [Example 6, 9-{4-[4-(4-Benzyloxy-phenyl)-piperazin-1-yl]-butyl}-9H-fluorene-9-carboxylic acid-(2,2,2-trifluoroethyl)-amide]
116 to 117	O=C(NCC(F)(F)F)C1(CCCCN2CCN(c3ccc(F)cc3)CC2)c2ccccc2-c2ccccc21 [Example 9, 9-{4-[4-(4-Fluorophenyl)-piperazin-1-yl]-butyl}-9H-fluorene-9-carboxylic acid-(2,2,2-trifluoroethyl)-amide]
63	O=C(NCC(F)(F)F)C1(CCCCN2CCN(c3cccc(-c4ccccc4)n3)CC2)c2ccccc2-c2ccccc21 [Example 28, 9-{4-[4-(6-phenyl-pyridin-2-yl)-piperazin-1-yl]-butyl}-9H-fluorene-9-carboxylic acid-(2,2,2-trifluoroethyl)-amide]
59	O=C(NCC(F)(F)F)C1(CCCCN2CCN(c3cc(-c4ccccc4)ccn3)CC2)c2ccccc2-c2ccccc21 [Example 29, 9-{4-[4-(4-phenyl-pyridin-2-yl)-piperazin-1-yl]-butyl}-9H-fluorene-9-carboxylic acid-(2,2,2-trifluoroethyl)-amide]
